In PMC12079242, “Design, Synthesis, Biological Evaluation, and Molecular Docking Studies of Novel 1,3,4-Thiadiazole Derivatives Targeting Both Aldose Reductase and α-Glucosidase for Diabetes Mellitus” (ACS Omega, 2025):
Blank lines part the entries; values can stand above or below the compound they belong to.

Assays:
[1] = test system: S. typhimurium TA mix; experiment: Ames II mutagenicity test, TA mix; assay type: cell-based, Salmonella typhimurium; settings: for Average number of the positive wells: TA Mix; for mutagenicity: TA mix strain
Protocol: (§1) Ames II Mutagenicity Assay Kit BioReliance and Moltox (Moltox, Boone, NC) kit were used in the experiment and the experiment was performed completely according to the kit procedure.[68]S. typhimurium TA 98 (hisD3052) and TA mix (hisG1775, hisC9138, hisG9074, hisG9133, hisG9130, hisC9070) strains were incubated in 50 mL tubes containing 10 mL growth medium at 37 °C for 24 h. At the end of the time, the OD600 value of the suspension was measured. Since the OD600 value ≥ 2.0, the experimental procedure was continued. The dilutions of 10 μL of compound 6h at 75, 37.5, 18.75, 9.4, 4.7 μM and compound 6o at […] were prepared at 5 different concentrations of the test substances dissolved in DMSO. The exposure plates (24 wells) with and without the S9 enzyme fraction were prepared for both strains. The exposure medium, bacteria, and test substance were added to the plates without S9 enzyme fraction in the amounts specified in the procedure; S9 enzyme fraction was added to the plates containing S9 enzyme fraction and incubated at 37 °C, 250 rpm for 90 min with shaking. At the end of the incubation period, […] of purple colored indicator medium specific for bacterial strains was added to each well of the plate. 4-Nitroquinoline-N-Oxide (4-NQO) - 2-Nitrofluorene (2-NF), and 2-Aminoanthracene (2-AA) were used as positive control and only DMSO was used as negative control. The contents of 50 μL in each well were transferred to 384 plates according to the determined experimental design and incubated at 37 °C for 48 h. At the end of the incubation period, bacterial metabolism in the plates changes the pH and changes the purple color to yellow. The number of yellow wells formed at the end of the experiment was determined as positive wells and the genotoxic properties of the substances were interpreted. Means and SD values of positive wells were calculated.[69]

[2] = test system: S. typhimurium TA 98; experiment: Ames II mutagenicity test, TA 98; assay type: cell-based, Salmonella typhimurium
Protocol: as §1

[3] = target: α-Glucosidase from Saccharomyces cerevisiae; experiment: α-Glycosidase inhibition assay with pNPG substrate; assay type: biochemical; settings: for Ki: Lineweaver–Burk plots, read-out: α-GLY KI; for IC50: mean ± SEM, read-out: α-GLY IC50
Protocol: α-Glucosidase activity (α-Glucosidase from Saccharomyces cerevisiae) was assessed using p-nitrophenyl-D-glycopyranoside (pNPG) as the substrate, following the procedure outlined by Tao et al.[60],[61] Initially, 100 μL of phosphate buffer was mixed with 20 μL of the enzyme solution (0.15 U/mL, pH 6.8) and 10–100 μL (0.01–1 mg/mL^–1) of the sample. To ensure complete enzyme inhibition, multiple solutions were prepared in phosphate buffer. The mixture was preincubated at 35 °C for 12 min before the reaction was initiated by adding pNPG. Subsequently, 50 μL of pNPG solution (5.0 mM, pH 7.4) was added and incubated at 37 °C. Absorbance was measured spectrophotometrically at 405 nm.
Furthermore, the types of inhibition and inhibition constants (KI) were calculated from Lineweaver–Burk plots, providing detailed insights into the kinetic properties of these inhibitors.[62],[63]

[4] = test system: L929 fibroblast cell line; experiment: MTT cell viability assay; assay type: cell-based; settings: Mus musculus; L929, 24 h incubation, 5–100 μM
Protocol: Healthy mouse fibroblast cell line (L929) was obtained from ATCC (American Type Culture Collection) and studied. Cells were mixed with 89% DMEM (Dulbecco’s modified Eagle’s medium; Gibco, Thermo Fisher Scientific), 10% FBS (Fetal Bovine Serum; Sigma-Aldrich) and 1% penicillin (Sigma-Aldrich) solutions. The cells in which the medium was added were allowed to grow by incubating at 37 °C in an environment containing 95% humidity and 5% CO2.[66],[67]
The cytotoxic effects of all syntheses by MTT analysis on L929 cell line was investigated. 96-well plates were used for seeding cells. Approximately 1 × 10^4 cells were seeded in each well. Cells were allowed to adhere for 24 h and then the syntheses were applied at different concentrations (5–100 μM). After adding syntheses at different concentrations, the wells were incubated for 24 h. All wells without syntheses were used as controls. After the incubation, the wells were treated with MTT solution to determine metabolically active cells and incubated at 37 °C for 3 h. After the MTT interaction, the wells were emptied and DMSO solution was placed in them. The formazan crystals formed were dissolved with this solution and the number of viable cells in each well was determined by color change. The absorbance values were read at 540 nm with the help of a microplate and the values found were represented as mean ± standard deviation (±SD).[66],[67]

Compound: Nc1ccc2cc3ccccc3cc2c1 [2-AA, 2-Aminoanthracene, reference compound]
Average number of the positive wells ([1]; S9+, positive control): 16
Average number of the positive wells ([1]; S9–, positive control): 16
Average number of the positive wells ([2]; TA 98, S9+, positive control): 16
Average number of the positive wells ([2]; TA 98, S9–, positive control): 16

Ki [3]: 11.9 ± 0.62 µM
IC50 [3]: 12.6 ± 0.75 µM
Compound: CCNc1nnc(SCC(=O)N(Cc2ccc([N+](=O)[O-])cc2)c2ccc(Cl)cc2)s1 [6a, N-(4-Chlororophenyl)-2-[(5-(ethylamino)-1,3,4-thiadiazol-2-yl)thio]-N-(4-nitrobenzyl) Acetamide]

Ki [3]: 96.5 ± 6.15 µM
IC50 [3]: 99 ± 7.37 µM
Compound: CC(C)CNc1nnc(SCC(=O)N(Cc2ccc([N+](=O)[O-])cc2)c2ccc(Cl)cc2)s1 [6e, N-(4-Chlororophenyl)-2-[(5-(isobutylamino)-1,3,4-thiadiazol-2-yl)thio]-N-(4-nitrobenzyl) Acetamide]

Ki [3]: 342 ± 22.4 µM
IC50 [3]: 347 ± 18.3 µM
Compound: O=C(CSc1nnc(NC2CCCCC2)s1)N(Cc1ccc([N+](=O)[O-])cc1)c1ccc(Cl)cc1 [6f, N-(4-Chlororophenyl)-2-[(5-(cyclohexylamino)-1,3,4-thiadiazol-2-yl)thio]-N-(4-nitrobenzyl) Acetamide]

Ki [3]: 12 ± 0.97 µM
IC50 [3]: 12.2 ± 0.87 µM
Compound: O=C(CSc1nnc(Nc2ccccc2)s1)N(Cc1ccc([N+](=O)[O-])cc1)c1ccc(Cl)cc1 [6g, N-(4-Chlororophenyl)-2-[(5-(phenylamino)-1,3,4-thiadiazol-2-yl)thio]-N-(4-nitrobenzyl) Acetamide]
IC50 [4]: 99.5 ± 5.66 µM

Compound: Cc1ccc(Nc2nnc(SCC(=O)N(Cc3ccc([N+](=O)[O-])cc3)c3ccc(Cl)cc3)s2)cc1 [6h, N-(4-Chlororophenyl)-2-[(5-(4-methylphenylamino)-1,3,4-thiadiazol-2-yl)thio]-N-(4-nitrobenzyl) Acetamide]
Ki [3]: 4.48 ± 0.25 µM
IC50 [3]: 4.68 ± 0.23 µM
Average number of the positive wells ([1]; S9+, 4.7 μM): 0
Average number of the positive wells ([1]; S9+, 9.4 μM): 0
Average number of the positive wells ([1]; S9+, 18.75 μM): 0
Average number of the positive wells ([1]; S9+, 37.5 μM): 0
Average number of the positive wells ([1]; S9+, 75 μM): 8
Average number of the positive wells ([1]; S9–, 4.7 μM): 0
Average number of the positive wells ([1]; S9–, 9.4 μM): 0
Average number of the positive wells ([1]; S9–, 18.75 μM): 0
Average number of the positive wells ([1]; S9–, 37.5 μM): 0
Average number of the positive wells ([1]; S9–, 75 μM): 5
mutagenicity ([1]; presence and absence of S9, 75 μM): mutagenicity was detected
Average number of the positive wells ([2]; TA 98, S9+, 4.7 μM): 0
Average number of the positive wells ([2]; TA 98, S9+, 9.4 μM): 0
Average number of the positive wells ([2]; TA 98, S9+, 18.75 μM): 0
Average number of the positive wells ([2]; TA 98, S9+, 37.5 μM): 0
Average number of the positive wells ([2]; TA 98, S9+, 75 μM): 0
Average number of the positive wells ([2]; TA 98, S9–, 4.7 μM): 0
Average number of the positive wells ([2]; TA 98, S9–, 9.4 μM): 0
Average number of the positive wells ([2]; TA 98, S9–, 18.75 μM): 0
Average number of the positive wells ([2]; TA 98, S9–, 37.5 μM): 0
Average number of the positive wells ([2]; TA 98, S9–, 75 μM): 0

Ki [3]: 15.9 ± 0.92 µM
IC50 [3]: 16.5 ± 0.93 µM
Compound: COCCNc1nnc(SCC(=O)N(Cc2ccc([N+](=O)[O-])cc2)c2ccc(F)cc2)s1 [6j, N-(4-Fluorophenyl)-2-[(5-((2-methoxyethyl)amino)-1,3,4-thiadiazol-2-yl)thio]-N-(4-nitrobenzyl) Acetamide]

IC50 [3]: > 500 µM
Compound: CCCNc1nnc(SCC(=O)N(Cc2ccc([N+](=O)[O-])cc2)c2ccc(F)cc2)s1 [6k, N-(4-Fluorophenyl)-2-[(5-(propylamino)-1,3,4-thiadiazol-2-yl)thio]-N-(4-nitrobenzyl) Acetamide]

IC50 [3]: > 500 µM
Compound: CC(C)Nc1nnc(SCC(=O)N(Cc2ccc([N+](=O)[O-])cc2)c2ccc(F)cc2)s1 [6l, N-(4-Fluorophenyl)-2-[(5-(isopropylamino)-1,3,4-thiadiazol-2-yl)thio]-N-(4-nitrobenzyl)acetamide]

IC50 [3]: > 500 µM
Compound: CCCCNc1nnc(SCC(=O)N(Cc2ccc([N+](=O)[O-])cc2)c2ccc(F)cc2)s1 [6m, N-(4-Fluorophenyl)-2-[(5-(butylamino)-1,3,4-thiadiazol-2-yl)thio]-N-(4-nitrobenzyl) Acetamide]

Compound: O=C(CSc1nnc(NC2CCCCC2)s1)N(Cc1ccc([N+](=O)[O-])cc1)c1ccc(F)cc1 [6o, N-(4-Fluorophenyl)-2-[(5-(cyclohexylamino)-1,3,4-thiadiazol-2-yl)thio]-N-(4-nitrobenzyl)acetamide]
Ki [3]: 12.5 ± 1.08 µM
IC50 [3]: 34.6 ± 1.78 µM
Average number of the positive wells ([1]; S9+, 3.125 nM): 0
Average number of the positive wells ([1]; S9+, 6.25 nM): 0
Average number of the positive wells ([1]; S9+, 12.5 nM): 0
Average number of the positive wells ([1]; S9+, 25 nM): 0
Average number of the positive wells ([1]; S9+, 50 nM): 15.3
Average number of the positive wells ([1]; S9–, 3.125 nM): 0
Average number of the positive wells ([1]; S9–, 6.25 nM): 0
Average number of the positive wells ([1]; S9–, 12.5 nM): 0
Average number of the positive wells ([1]; S9–, 25 nM): 0
Average number of the positive wells ([1]; S9–, 50 nM): 15.3
mutagenicity ([1]; presence and absence of S9, 50 nM): mutagenicity was detected
Average number of the positive wells ([2]; TA 98, S9+, 3.125 nM): 0
Average number of the positive wells ([2]; TA 98, S9+, 6.25 nM): 0
Average number of the positive wells ([2]; TA 98, S9+, 12.5 nM): 0
Average number of the positive wells ([2]; TA 98, S9+, 25 nM): 0
Average number of the positive wells ([2]; TA 98, S9+, 50 nM): 0
Average number of the positive wells ([2]; TA 98, S9–, 3.125 nM): 0
Average number of the positive wells ([2]; TA 98, S9–, 6.25 nM): 0
Average number of the positive wells ([2]; TA 98, S9–, 12.5 nM): 0
Average number of the positive wells ([2]; TA 98, S9–, 25 nM): 0
Average number of the positive wells ([2]; TA 98, S9–, 50 nM): 0

Ki [3]: 8.38 ± 0.12 µM
IC50 [3]: 8.25 ± 0.56 µM
Compound: O=C(CSc1nnc(Nc2ccccc2)s1)N(Cc1ccc([N+](=O)[O-])cc1)c1ccc(F)cc1 [6p, N-(4-Fluorophenyl)-2-[(5-(phenylamino)-1,3,4-thiadiazol-2-yl)thio]-N-(4-nitrobenzyl)acetamide]

Ki [3]: 7.86 ± 0.62 µM
IC50 [3]: 8.15 ± 0.48 µM
Compound: Cc1ccc(Nc2nnc(SCC(=O)N(Cc3ccc([N+](=O)[O-])cc3)c3ccc(F)cc3)s2)cc1 [6q, N-(4-Fluorophenyl)-2-[(5-(4-methylphenylamino)-1,3,4-thiadiazol-2-yl)thio]-N-(4-nitrobenzyl) Acetamide]
